Reference: article PMC4581874 (PLoS ONE, 2015)
Entries after “also recorded” stand apart in the source; their conditions may differ.

Experiments:
VEGFR-2 = molecular target: T1, VEGFR-2 (Homo sapiens, UniProt P35968); experiment: In vitro kinase assay, VEGFR-2; assay type: biochemical; conditions: for IC50: in vitro kinase assay; for inhibition at 1 µM: mean ± S.D., read-out: % inhibition at 1 μM, VEGFR-2 (h)
T1 construct: purchased Millipore UK Ltd., Dundee, UK (now Eurofins Scientific); KinaseProfiler / IC50 Profiler service
Protocol: (§1) All kinase assays were carried out using KinaseProfiler^TM and IC50 Profiler^TM (Millipore UK Ltd., Dundee, UK. Now Eurofins Scientific, Dundee, UK). All IC50 data were presented as the mean values. The Curves obtained to determine IC50 values were shown in Supporting Information (S1 Fig).

EGFR = EGFR (Homo sapiens, UniProt P00533); experiment: In vitro kinase assay, EGFR; assay type: biochemical; conditions: for IC50: in vitro kinase assay, mean values; for inhibition at 1 µM: mean ± S.D., read-out: % inhibition at 1 μM, EGFR(h)
Sequence of EGFR (P00533 25-1210): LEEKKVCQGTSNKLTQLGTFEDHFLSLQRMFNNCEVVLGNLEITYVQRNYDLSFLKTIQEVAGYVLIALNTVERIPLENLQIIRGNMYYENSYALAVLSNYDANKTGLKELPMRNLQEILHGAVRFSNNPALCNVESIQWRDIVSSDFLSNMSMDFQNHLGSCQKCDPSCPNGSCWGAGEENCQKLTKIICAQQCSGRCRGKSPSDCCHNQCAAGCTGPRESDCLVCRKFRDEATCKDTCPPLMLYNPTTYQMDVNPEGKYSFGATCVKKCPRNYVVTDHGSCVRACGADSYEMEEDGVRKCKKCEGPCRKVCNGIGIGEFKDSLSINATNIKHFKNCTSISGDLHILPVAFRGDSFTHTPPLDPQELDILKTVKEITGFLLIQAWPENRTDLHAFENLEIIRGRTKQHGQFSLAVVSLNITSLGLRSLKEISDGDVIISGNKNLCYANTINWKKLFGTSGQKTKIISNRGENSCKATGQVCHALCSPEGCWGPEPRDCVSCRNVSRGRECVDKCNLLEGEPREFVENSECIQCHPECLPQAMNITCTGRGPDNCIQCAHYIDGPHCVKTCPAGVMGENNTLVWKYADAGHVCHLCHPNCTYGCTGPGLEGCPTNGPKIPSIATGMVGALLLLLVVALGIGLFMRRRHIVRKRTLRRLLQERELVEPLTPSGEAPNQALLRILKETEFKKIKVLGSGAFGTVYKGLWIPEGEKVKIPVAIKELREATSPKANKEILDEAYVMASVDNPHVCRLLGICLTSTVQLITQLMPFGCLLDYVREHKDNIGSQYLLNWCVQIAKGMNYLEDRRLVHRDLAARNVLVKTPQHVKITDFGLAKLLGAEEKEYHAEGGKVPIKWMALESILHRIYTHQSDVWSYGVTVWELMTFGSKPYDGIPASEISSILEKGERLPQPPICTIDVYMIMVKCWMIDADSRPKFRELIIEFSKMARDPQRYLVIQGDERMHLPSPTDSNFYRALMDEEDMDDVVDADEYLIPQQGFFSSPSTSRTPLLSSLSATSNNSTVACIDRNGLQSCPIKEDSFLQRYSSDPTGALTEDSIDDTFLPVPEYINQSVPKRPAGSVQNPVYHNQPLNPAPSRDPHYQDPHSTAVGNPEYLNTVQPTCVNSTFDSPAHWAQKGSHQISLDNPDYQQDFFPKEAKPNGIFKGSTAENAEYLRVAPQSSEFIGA
Protocol: All kinase assays were carried out using KinaseProfiler^TM and IC50 Profiler^TM (Millipore UK Ltd., Dundee, UK. Now Eurofins Scientific, Dundee, UK). All IC50 data were presented as the mean values.

HCC827 cells = experiment: HCC827 cell viability assay; assay type: cell-based; conditions: Homo sapiens, 72 h, read-out: HCC827 IC50 (anti-proliferative activity)
Protocol: HCC827 cells were purchased from the American Type Culture Collection (ATCC, Manassas, VA, USA). […] Human umbilical vein endothelial cells (HUVECs, ScienCell Research Laboratories, Carlsbad, CA, USA) were cultured in endothelial growth medium-2 (EGM-2; Lonza, Walkersville, MD, USA) from passages 3 to 6.
After a 24-hour incubation, the cells were treated with a series of test compound dilutions for 72 hours. Cell viability was assessed using EZ-Cytox (Daeil Lab Service, Seoul, South Korea) according to the manufacturer’s instructions.
Cells were incubated for 72 h with a range of concentrations of MKP101, and cell viability was measured using the WST-1 assay. […] Western blot analysis using antibodies to phosphorylated and total EGFR from a representative experiment is shown. Cells were incubated for 3 h at the indicated concentration. (C) Graph showing the relative intensities of the total and phosphorylated EGFR as determined by band densitometry. IC50, half-maximal inhibitory concentration.

cKit = molecular target: T2, cKit (Homo sapiens, UniProt P10721); experiment: In vitro kinase assay, cKit; assay type: biochemical; conditions: 1 μM, mean ± S.D.; read-out: % inhibition at 1 μM, cKit(h)
T2 construct: purchased Millipore UK Ltd., Dundee, UK (now Eurofins Scientific); KinaseProfiler / IC50 Profiler service
Protocol: as §1

VEGFR-1 = molecular target: T3, VEGFR-1 (Homo sapiens, UniProt P17948); experiment: In vitro kinase assay, VEGFR-1; assay type: biochemical; conditions: 1 μM, mean ± S.D.; read-out: % inhibition at 1 μM, VEGFR-1 (h)
T3 construct: purchased Millipore UK Ltd., Dundee, UK (now Eurofins Scientific); KinaseProfiler / IC50 Profiler service
Protocol: as §1

PDGFRα = molecular target: T4, PDGFRα (Homo sapiens, UniProt P16234); experiment: In vitro kinase assay, PDGFRα; assay type: biochemical; conditions: 1 μM, mean ± S.D.; read-out: % inhibition at 1 μM, PDGFRα (h)
T4 construct: purchased Millipore UK Ltd., Dundee, UK (now Eurofins Scientific); KinaseProfiler / IC50 Profiler service
T4 sequence (P16234 24-1089): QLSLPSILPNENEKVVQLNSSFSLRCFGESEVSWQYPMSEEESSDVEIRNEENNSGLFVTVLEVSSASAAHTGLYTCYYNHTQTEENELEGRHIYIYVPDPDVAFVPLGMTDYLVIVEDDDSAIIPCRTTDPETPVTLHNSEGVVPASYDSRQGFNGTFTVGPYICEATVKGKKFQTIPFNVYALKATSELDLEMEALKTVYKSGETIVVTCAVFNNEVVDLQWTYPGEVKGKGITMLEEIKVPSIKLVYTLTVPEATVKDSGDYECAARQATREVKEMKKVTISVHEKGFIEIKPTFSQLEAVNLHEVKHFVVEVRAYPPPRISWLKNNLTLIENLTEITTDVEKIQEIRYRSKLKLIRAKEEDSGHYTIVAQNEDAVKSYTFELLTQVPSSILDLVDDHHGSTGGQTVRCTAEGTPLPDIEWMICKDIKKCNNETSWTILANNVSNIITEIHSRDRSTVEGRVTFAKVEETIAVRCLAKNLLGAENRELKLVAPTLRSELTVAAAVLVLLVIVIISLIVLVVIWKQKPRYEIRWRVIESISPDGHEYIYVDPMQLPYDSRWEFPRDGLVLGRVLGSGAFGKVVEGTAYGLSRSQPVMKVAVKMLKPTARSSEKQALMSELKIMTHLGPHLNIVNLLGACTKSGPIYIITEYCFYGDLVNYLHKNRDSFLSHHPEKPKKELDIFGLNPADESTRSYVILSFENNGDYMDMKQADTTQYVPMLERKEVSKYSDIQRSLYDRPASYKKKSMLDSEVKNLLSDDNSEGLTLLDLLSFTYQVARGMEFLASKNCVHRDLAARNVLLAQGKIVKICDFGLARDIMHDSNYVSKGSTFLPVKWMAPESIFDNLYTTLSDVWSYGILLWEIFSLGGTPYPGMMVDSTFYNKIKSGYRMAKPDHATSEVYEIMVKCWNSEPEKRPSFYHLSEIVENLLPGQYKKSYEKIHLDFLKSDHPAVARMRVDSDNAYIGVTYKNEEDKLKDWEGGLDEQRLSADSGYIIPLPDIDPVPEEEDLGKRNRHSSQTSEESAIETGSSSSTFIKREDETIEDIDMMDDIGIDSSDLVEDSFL
Protocol: as §1

EGFR (L858R) = molecular target: T5, EGFR (L858R) (Homo sapiens, UniProt P00533, L858R); experiment: In vitro kinase assay, EGFR (L858R); assay type: biochemical; conditions: 1 μM, mean ± S.D.; read-out: % inhibition at 1 μM, EGFR(L858R)(h)
T5 construct: purchased Millipore UK Ltd., Dundee, UK (now Eurofins Scientific); KinaseProfiler / IC50 Profiler service
T5 sequence (P00533 25-1210 L858R): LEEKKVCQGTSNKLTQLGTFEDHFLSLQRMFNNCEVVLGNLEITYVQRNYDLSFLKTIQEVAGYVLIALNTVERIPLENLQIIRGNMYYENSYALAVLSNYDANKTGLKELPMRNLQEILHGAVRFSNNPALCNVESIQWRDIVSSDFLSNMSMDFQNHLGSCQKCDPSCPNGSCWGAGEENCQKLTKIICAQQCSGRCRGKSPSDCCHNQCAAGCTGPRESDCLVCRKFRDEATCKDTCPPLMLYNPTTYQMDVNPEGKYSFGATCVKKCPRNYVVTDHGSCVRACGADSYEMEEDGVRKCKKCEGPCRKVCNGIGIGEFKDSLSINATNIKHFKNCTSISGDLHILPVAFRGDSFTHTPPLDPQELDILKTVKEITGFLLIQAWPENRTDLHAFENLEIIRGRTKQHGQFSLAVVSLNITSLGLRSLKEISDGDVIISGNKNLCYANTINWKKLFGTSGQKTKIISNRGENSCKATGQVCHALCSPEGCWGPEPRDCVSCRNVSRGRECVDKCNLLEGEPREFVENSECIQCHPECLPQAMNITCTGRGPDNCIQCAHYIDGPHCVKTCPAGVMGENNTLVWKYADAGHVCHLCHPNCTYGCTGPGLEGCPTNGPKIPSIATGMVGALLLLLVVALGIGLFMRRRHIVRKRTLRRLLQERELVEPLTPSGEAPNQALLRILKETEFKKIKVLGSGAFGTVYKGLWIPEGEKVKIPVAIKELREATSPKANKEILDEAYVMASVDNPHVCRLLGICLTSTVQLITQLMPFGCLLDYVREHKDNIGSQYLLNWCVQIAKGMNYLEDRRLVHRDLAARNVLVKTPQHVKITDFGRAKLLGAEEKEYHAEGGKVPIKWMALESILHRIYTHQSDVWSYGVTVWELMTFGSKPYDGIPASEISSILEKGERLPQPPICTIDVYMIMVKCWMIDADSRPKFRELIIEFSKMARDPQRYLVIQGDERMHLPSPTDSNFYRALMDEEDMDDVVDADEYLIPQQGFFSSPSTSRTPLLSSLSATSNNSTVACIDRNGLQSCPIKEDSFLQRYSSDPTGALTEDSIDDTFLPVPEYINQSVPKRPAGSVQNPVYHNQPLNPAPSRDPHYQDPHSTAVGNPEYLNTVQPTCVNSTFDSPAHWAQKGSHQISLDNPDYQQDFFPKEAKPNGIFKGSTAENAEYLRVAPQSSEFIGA
Protocol: as §1

PDGFRβ = molecular target: T6, PDGFRβ (Homo sapiens, UniProt P09619); experiment: In vitro kinase assay, PDGFRβ; assay type: biochemical; conditions: 1 μM, mean ± S.D.; read-out: % inhibition at 1 μM, PDGFRβ (h)
T6 construct: purchased Millipore UK Ltd., Dundee, UK (now Eurofins Scientific); KinaseProfiler / IC50 Profiler service
Protocol: as §1

VEGFR-3 = molecular target: T7, VEGFR-3 (Homo sapiens, UniProt P35916); experiment: In vitro kinase assay, VEGFR-3; assay type: biochemical; conditions: 1 μM, mean ± S.D.; read-out: % inhibition at 1 μM, VEGFR-3 (h)
T7 construct: purchased Millipore UK Ltd., Dundee, UK (now Eurofins Scientific); KinaseProfiler / IC50 Profiler service
T7 sequence (P35916 25-1363): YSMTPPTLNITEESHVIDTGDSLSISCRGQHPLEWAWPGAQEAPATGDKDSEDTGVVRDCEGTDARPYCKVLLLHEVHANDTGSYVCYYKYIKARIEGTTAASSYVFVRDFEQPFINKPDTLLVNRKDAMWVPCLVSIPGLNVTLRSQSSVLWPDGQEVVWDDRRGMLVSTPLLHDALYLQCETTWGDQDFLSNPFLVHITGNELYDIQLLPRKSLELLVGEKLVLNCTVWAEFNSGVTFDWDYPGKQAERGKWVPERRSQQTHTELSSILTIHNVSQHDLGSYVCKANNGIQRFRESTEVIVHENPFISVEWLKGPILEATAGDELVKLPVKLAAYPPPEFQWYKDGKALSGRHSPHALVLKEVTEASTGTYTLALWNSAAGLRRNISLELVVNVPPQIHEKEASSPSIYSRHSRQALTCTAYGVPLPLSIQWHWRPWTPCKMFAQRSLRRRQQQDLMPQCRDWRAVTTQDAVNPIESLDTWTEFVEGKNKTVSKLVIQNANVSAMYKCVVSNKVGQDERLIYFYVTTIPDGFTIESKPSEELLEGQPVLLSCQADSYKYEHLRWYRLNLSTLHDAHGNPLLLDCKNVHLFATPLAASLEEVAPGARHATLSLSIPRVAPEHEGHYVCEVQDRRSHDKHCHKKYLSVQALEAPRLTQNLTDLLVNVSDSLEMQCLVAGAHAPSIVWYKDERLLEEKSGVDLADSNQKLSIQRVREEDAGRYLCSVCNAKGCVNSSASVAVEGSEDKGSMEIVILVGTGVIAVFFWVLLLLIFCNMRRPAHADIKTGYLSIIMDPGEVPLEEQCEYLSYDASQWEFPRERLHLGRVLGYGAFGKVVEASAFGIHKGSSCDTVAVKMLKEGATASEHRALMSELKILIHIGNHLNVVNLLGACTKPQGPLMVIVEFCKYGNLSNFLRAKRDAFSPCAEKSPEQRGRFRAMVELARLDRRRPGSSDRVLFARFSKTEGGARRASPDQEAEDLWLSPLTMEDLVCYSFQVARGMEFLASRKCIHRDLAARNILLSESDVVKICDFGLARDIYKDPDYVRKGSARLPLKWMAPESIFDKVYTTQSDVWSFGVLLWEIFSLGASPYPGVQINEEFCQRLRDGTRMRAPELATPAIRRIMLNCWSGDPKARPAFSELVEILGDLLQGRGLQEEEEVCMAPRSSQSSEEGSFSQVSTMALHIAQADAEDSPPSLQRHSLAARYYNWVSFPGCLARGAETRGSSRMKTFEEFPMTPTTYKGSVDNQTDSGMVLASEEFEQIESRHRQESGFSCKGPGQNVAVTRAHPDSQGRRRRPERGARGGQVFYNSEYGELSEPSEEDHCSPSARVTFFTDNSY
Protocol: as §1

FGFR3 = molecular target: T8, FGFR3 (Homo sapiens, UniProt P22607); experiment: In vitro kinase assay, FGFR3; assay type: biochemical; conditions: 1 μM, mean ± S.D.; read-out: % inhibition at 1 μM, FGFR3 (h)
T8 construct: purchased Millipore UK Ltd., Dundee, UK (now Eurofins Scientific); KinaseProfiler / IC50 Profiler service
Protocol: as §1

FGFR1 = molecular target: T9, FGFR1 (Homo sapiens, UniProt P11362); experiment: In vitro kinase assay, FGFR1; assay type: biochemical; conditions: 1 μM, mean ± S.D.; read-out: % inhibition at 1 μM, FGFR1 (h)
T9 construct: purchased Millipore UK Ltd., Dundee, UK (now Eurofins Scientific); KinaseProfiler / IC50 Profiler service
Protocol: as §1

HUVECs [1] = experiment: VEGF-induced tube formation assay; assay type: cell-based, human; conditions: VEGF 50 ng/mL, compound 1 μg/mL
Protocol: For analyzing of the antagonistic response to VEGF, tube formation, scratch wound migration, and cell proliferation assays were performed after the exposure of HUVECs to 50 ng/mL VEGF-A (R&D Systems, Minneapolis, MN), which induced a significant angiogenic response. For the cell proliferation assays, cells were incubated overnight in endothelial basal media (EBM; Lonza, Walkersville, MD, USA) containing 0.5% FBS or supplemented with VEGF-A and/or VEGF inhibitors. The cells were washed with PBS and counted in 4 random microscope fields. The tube formation assay was performed by seeding cells on Matrigel-coated plates (BD Bioscience, Bedford, MA, USA) and incubating in EBM containing 0.5% FBS or supplemented with VEGF-A and/or VEGF inhibitors. After overnight incubation, tubule networks were quantified by measuring the tubule length in 4 random microscope fields. For the analysis of scratch wound migration, confluent cell monolayers grown on 6-well plates were scratched using a micropipette tip. […] Cell migration was observed by optical microscopy and quantified by measuring the number of cells that had migrated from the wound edges.
In (A) and (B), the number of cells was expressed as the fold change with respect to the number of cells seeded at day 0. […]

HUVECs [2] = experiment: HUVEC viability assay (cytotoxicity); assay type: cell-based, human; conditions: 24 hours
Protocol: HCC827 cells were purchased from the American Type Culture Collection (ATCC, Manassas, VA, USA). Cells were grown in RPMI 1640 (Welgene Inc., Daegu, Republic of Korea) supplemented with 10% fetal bovine serum (FBS) (Welgene Inc.) and 1% penicillin-streptomycin (Gibco®, Life Technologies, Carlsbad, CA, USA) in a humidified 5% CO2 atmosphere at 37°C. Human umbilical vein endothelial cells (HUVECs, ScienCell Research Laboratories, Carlsbad, CA, USA) were cultured in endothelial growth medium-2 (EGM-2; Lonza, Walkersville, MD, USA) from passages 3 to 6.
For the HUVEC viability assay, HUVECs were treated with phosphate-buffered saline (PBS) or the indicated concentrations of VEGF inhibitors in EGM-2 medium for 24 hours. After the cells were washed with PBS, they were counted using an inverted light microscope (Nikon Eclipse Ti-U; Nikon Corp., Tokyo, Japan) in 5 random fields from each well.

Row | SMILES | IC50 (VEGFR-2) | IC50 (EGFR) | inhibition at 1 µM (EGFR) | also measured
1 | CN(c1ccc2[nH]ccc2c1)c1ccnc(Nc2ccc(OCCCCN3CCOCC3)cc2)n1 [MKP108] | 26 nM | 200 nM | – | –
2 | COc1cc(Nc2nccc(Nc3ccc4[nH]ccc4c3)n2)cc(N2CCOCC2)c1 [MKP116] | 20 nM | 41 nM | – | –
3 | CN(c1ccc2[nH]ccc2c1)c1cc(Nc2ccc(N3CCOCC3)cc2)ncn1 [MKP119] | > 3000 nM | 35 nM | – | –
4 | Cc1ccc(Nc2nccc(Oc3ccc4[nH]ccc4c3)n2)cc1S(N)(=O)=O [MKP122] | 20 nM | 2040 nM | 35 ± 2% | inhibition at 1 µM (cKit): 99 ± 1%; inhibition at 1 µM (VEGFR-1): 100%; inhibition at 1 µM (PDGFRα): 87 ± 1%; inhibition at 1 µM (VEGFR-2): 96%; inhibition at 1 µM (EGFR (L858R)): 66%; inhibition at 1 µM (PDGFRβ): 92%; inhibition at 1 µM (VEGFR-3): 100%; inhibition at 1 µM (FGFR3): 65 ± 4%; inhibition at 1 µM (FGFR1): 83%
5 | c1nc(Nc2ccc(N3CCOCC3)cc2)cc(Nc2ccc3[nH]ccc3c2)n1 [MKP118] | 1200 nM | 7 nM | – | –
6 | CN(c1ccc2c(ccn2C)c1)c1ccnc(Nc2ccc(N3CCOCC3)cc2)n1 [MKP112] | 360 nM | 10100 nM | – | –
7 | Cc1ccc(Nc2nccc(N(C)c3ccc4c(ccn4C)c3)n2)cc1S(N)(=O)=O [MKP104] | – | – | 20 ± 4% | IC50 (HCC827 cells): 2680 nM
8 | Cc1ccc(Nc2cc(Oc3ccc4[nH]ccc4c3)ncn2)cc1S(N)(=O)=O [MKP123] | 45 nM | 18 nM | 100% | inhibition at 1 µM (cKit): 53 ± 9%; inhibition at 1 µM (VEGFR-1): 99 ± 1%; inhibition at 1 µM (PDGFRα): 30 ± 3%; inhibition at 1 µM (VEGFR-2): 97%; inhibition at 1 µM (EGFR (L858R)): 99 ± 1%; inhibition at 1 µM (PDGFRβ): 44 ± 3%; inhibition at 1 µM (VEGFR-3): 100%; inhibition at 1 µM (FGFR3): 21 ± 2%; inhibition at 1 µM (FGFR1): 20 ± 6%
9 | COc1ccc(Nc2cc(Oc3ccc4[nH]ccc4c3)ncn2)cc1N1CCOCC1 [MKP121] | 30 nM | 31 nM | 94 ± 2% | inhibition at 1 µM (cKit): 70 ± 3%; inhibition at 1 µM (VEGFR-1): 99 ± 2%; inhibition at 1 µM (PDGFRα): 37 ± 1%; inhibition at 1 µM (VEGFR-2): 96%; inhibition at 1 µM (EGFR (L858R)): 98%; inhibition at 1 µM (PDGFRβ): 48%; inhibition at 1 µM (VEGFR-3): 98%; inhibition at 1 µM (FGFR3): 13 ± 4%; inhibition at 1 µM (FGFR1): 29 ± 5%
10 | Cc1ccc(Nc2nccc(N(C)c3ccc4cc[nH]c4c3)n2)cc1S(N)(=O)=O [MKP105] | – | – | 47 ± 2% | IC50 (HCC827 cells): 1460 nM
11 | c1nc(Nc2ccc(N3CCOCC3)cc2)cc(Oc2ccc3[nH]ccc3c2)n1 [MKP120] | 32 nM | 10 nM | – | –
12 | COc1cc(Nc2nccc(N(C)c3ccc4[nH]ccc4c3)n2)cc(N2CCOCC2)c1 [MKP117] | 17 nM | 33 nM | – | –
13 | c1cc(Nc2nccc(Nc3ccc4[nH]ccc4c3)n2)cc(N2CCOCC2)c1 [MKP110] | 30 nM | 180 nM | – | –
14 | Cc1ccc(Nc2nccc(N(C)c3ccc4c(C)n(C)nc4c3)n2)cc1S(N)(=O)=O [Pazopanib, 5-[[4-[(2,3-dimethyl-2H-indazol-6-yl)methylamino]-2-pyrimidinyl]amino]-2-methyl-benzenesulfonamide, reference compound] | – | – | – | EGFR inhibition (in words) (EGFR): did not inhibit EGFR; also recorded: no inhibitory effect against EGFR; Effect on VEGF-induced increase in tube formation (HUVECs [1]): significantly inhibited; Cytotoxicity in HUVECs (HUVECs [2]; 1 μg/mL): No cytotoxicity was observed; Cytotoxicity in HUVECs (HUVECs [2]; 5 and 10 μg/mL): significant endothelial cytotoxicity

More lines, main results first:

Row | IC50 (VEGFR-2) | IC50 (EGFR) | inhibition at 1 µM (EGFR) | SMILES | also measured
15 | – | 55 nM | 93 ± 2% | Cc1ccc(Nc2nccc(N(C)c3ccc4[nH]cc(C)c4c3)n2)cc1S(N)(=O)=O [MKP102] | IC50 (HCC827 cells): 197 nM
16 | 10 nM | 56 nM | – | COc1ccc(Nc2nccc(Nc3ccc4[nH]ccc4c3)n2)cc1N1CCOCC1 [MKP115] | –
17 | – | – | 42 ± 4% | Cc1cc2cc(N(C)c3ccnc(Nc4ccc(C)c(S(N)(=O)=O)c4)n3)ccc2[nH]1 [MKP103] | IC50 (HCC827 cells): 1630 nM
18 | 130 nM | 178 nM | – | c1cc(Nc2ccc3[nH]ccc3c2)nc(Nc2ccc(OCCCCN3CCOCC3)cc2)n1 [MKP107] | –
19 | 41 nM | 610 nM | – | Fc1cc(Nc2nccc(Nc3ccc4[nH]ccc4c3)n2)cc(N2CCOCC2)c1 [MKP114] | –
20 | 20 nM | 210 nM | – | c1cc(Nc2ccc3[nH]ccc3c2)nc(Nc2ccc(OCCN3CCOCC3)cc2)n1 [MKP106] | –
21 | 30 nM | 1630 nM | – | Fc1cc(Nc2nccc(Nc3ccc4[nH]ccc4c3)n2)ccc1N1CCOCC1 [MKP113] | –
22 | 50 nM | 240 nM | – | c1cc(Nc2ccc3[nH]ccc3c2)nc(Nc2ccc(N3CCOCC3)cc2)n1 [MKP109] | –
23 | 1570 nM | 2240 nM | – | Cn1ccc2cc(Nc3ccnc(Nc4ccc(N5CCOCC5)cc4)n3)ccc21 [MKP111] | –
